# Paper PMC12808645 (Nature Communications, 2025)
# Legend:
# Nan-Iav = type: cell-based, Halyomorpha halys
# NanY172F-Iav [1] = type: binding, Halyomorpha halys
# NanY177F-Iav [2] = type: binding, Halyomorpha halys
# NanY177A-Iav [3] = assay: Whole-cell electrophysiology, NanY177A-Iav; type: cell-based, Halyomorpha halys
# NanY177A-Iav [4] = type: binding, Halyomorpha halys
# NanY172A-Iav [5] = type: binding, Halyomorpha halys
# NanY172A-Iav [6] = type: binding, Halyomorpha halys; remark: listed apart in the source
# NanY172F-Iav [7] = type: binding, Halyomorpha halys; remark: listed apart in the source
# NanY177F-Iav [8] = type: binding, Halyomorpha halys; remark: listed apart in the source
# NanY177A-Iav [9] = type: binding, Halyomorpha halys; remark: listed apart in the source
smiles,measurement,setting,value
[Ca+2] [Ca^2+],% inhibition of inward current,Nan-Iav,~ 50%
same,% inhibition of outward current,Nan-Iav,~ 20%
"NC(=O)c1cccnc1 [NAM, nicotinamide]",increase of Ki for NAM relative to WT,NanY172F-Iav [1],~ 10 fold
same,weaker NAM affinity than WT,NanY177F-Iav [2],~ 10 fold
same,effect on whole-cell current,"Nan-Iav; 1 mM NAM, ±60 mV",robustly stimulated
same,desensitization and reversibility of evoked currents,"Nan-Iav; prolonged or repeated application, washout",non-desensitizing upon prolonged or repeated application and are reversible upon washout
same,EC50,Nan-Iav; read-out: apparent EC50,~100 µM
same,NAM-induced channel activity,NanY177A-Iav [3],abolishes
same,lowering of NAM binding affinity relative to WT,NanY177A-Iav [4],> 100 fold
same,Ki,"NanY177A-Iav [4]; read-out: Ki NAM, competition with [3H]-AP, affinities exceeding 10 mM could not be accurately determined",> 10000 µM
same,raising of Ki for NAM relative to WT,NanY172A-Iav [5],two orders of magnitude
C[C@]1(COC(=O)C2CC2)[C@@H]2C[C@H](O)[C@@]3(C)Oc4cc(-c5cccnc5)oc(=O)c4[C@H](O)[C@@H]3[C@@]2(C)CC[C@@H]1OC(=O)C1CC1 [[^3H]-AP],increase in [3H]-AP Kd relative to WT,NanY172A-Iav [6],~ 100 fold
same,difference in [3H]-AP Kd relative to WT,NanY172F-Iav [7],3 fold
same,[3H]-AP Kd compared with WT,NanY177F-Iav [8],similar
same,greater [3H]-AP Kd than WT,NanY177A-Iav [9],~ 200 fold
N.N.N.N.N.N.N.N.N.N.N.N.N.N.[Cl-].[Cl-].[Cl-].[Cl-].[Cl-].[Cl-].[O-2].[O-2].[Ru+3].[Ru+3].[Ru+4] [ruthenium red],effect on AP-elicited current,Nan-Iav; pore blocker,inhibited
